SMILES: c1ccc2c(c1)sc1ccccc12
- solubility (mole fraction) (in acetonitrile, 278.15 K): 0.00126
- solubility (mole fraction) (in acetonitrile, 283.15 K): 0.00163
- solubility (mole fraction) (in acetonitrile, 288.65 K): 0.00192
- solubility (mole fraction) (in acetonitrile, 293.15 K): 0.00242
- solubility (mole fraction) (in acetonitrile, 298.15 K): 0.0029
- solubility (mole fraction) (in acetonitrile, 303.15 K): 0.00331
- solubility (mole fraction) (in acetonitrile, 308.15 K): 0.00406
- solubility (mole fraction) (in acetonitrile, 313.15 K): 0.00478
- solubility (mole fraction) (in acetonitrile, 318.15 K): 0.0056
- solubility (mole fraction) (in acetonitrile, 323.15 K): 0.00668
- solubility (mole fraction) (in acetonitrile, 328.15 K): 0.00782
- solubility (mole fraction) (in acetonitrile, 333.15 K): 0.00917
- solubility (mole fraction) (in methanol, 278.15 K): 0.00454
- solubility (mole fraction) (in methanol, 283.15 K): 0.00611
- solubility (mole fraction) (in methanol, 288.65 K): 0.00845
- solubility (mole fraction) (in methanol, 293.15 K): 0.0118
- solubility (mole fraction) (in methanol, 298.15 K): 0.0152
- solubility (mole fraction) (in methanol, 303.15 K): 0.0189
- solubility (mole fraction) (in methanol, 308.15 K): 0.0241
- solubility (mole fraction) (in methanol, 313.15 K): 0.0321
- solubility (mole fraction) (in methanol, 318.15 K): 0.0402
- solubility (mole fraction) (in methanol, 323.15 K): 0.0506
- solubility (mole fraction) (in methanol, 328.15 K): 0.0639
- solubility (mole fraction) (in methanol, 333.15 K): 0.0839

Source: BigSolDB 2.1
